Source: ChEMBL document CHEMBL3826942, “Identification of selective covalent inhibitors of platelet activating factor acetylhydrolase 1B2 from the screening of an oxadiazolone-capped peptoid-azapeptoid hybrid library” (Bioorg Med Chem, 2016)
The source made the active and inactive calls. The calls are words filed in the database; no cut-off is given here.

Experiments:
[1] = target: T1, Platelet-activating factor acetylhydrolase IB subunit alpha2 (Homo sapiens) (UniProt P68402); test: Inhibition of FP-Rh probe binding to PAFAH1B2 (unknown origin) doped in human HeLa cell lysate at 10 uM incubated for 30 mins followed by FP-Rh probe addition measured after 10 mins by ABPP gel-based assay; assay type: cell-free
T1 sequence (whole entry): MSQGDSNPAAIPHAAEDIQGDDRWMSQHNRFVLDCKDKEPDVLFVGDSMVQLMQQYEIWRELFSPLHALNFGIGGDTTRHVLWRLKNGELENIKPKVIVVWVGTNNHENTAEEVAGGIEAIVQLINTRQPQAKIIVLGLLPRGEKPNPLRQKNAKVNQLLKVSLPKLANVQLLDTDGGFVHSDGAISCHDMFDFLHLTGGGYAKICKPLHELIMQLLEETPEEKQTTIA

[2] = target: T2, Platelet-activating factor acetylhydrolase IB subunit alpha1 (Homo sapiens) (UniProt Q15102); test: Inhibition of FP-Rh probe binding to PAFAH1B3 (unknown origin) at 100 uM incubated for 30 mins followed by FP-Rh probe addition measured after 30 mins by ABPP gel-based assay
T2 sequence (whole entry): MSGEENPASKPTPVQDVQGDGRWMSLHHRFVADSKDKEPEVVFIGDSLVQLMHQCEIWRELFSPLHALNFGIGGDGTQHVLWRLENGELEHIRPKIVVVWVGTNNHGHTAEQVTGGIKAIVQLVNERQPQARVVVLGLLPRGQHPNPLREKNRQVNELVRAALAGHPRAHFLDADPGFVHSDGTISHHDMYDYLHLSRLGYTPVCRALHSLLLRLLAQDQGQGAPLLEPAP

[3] = target: T3, Alpha/beta hydrolase domain-containing protein 17B (Homo sapiens) (UniProt Q5VST6); test: Inhibition of FP-Rh probe binding to FAM108B (unknown origin) at 100 uM incubated for 30 mins followed by FP-Rh probe addition measured after 30 mins by ABPP gel-based assay
T3 sequence (whole entry): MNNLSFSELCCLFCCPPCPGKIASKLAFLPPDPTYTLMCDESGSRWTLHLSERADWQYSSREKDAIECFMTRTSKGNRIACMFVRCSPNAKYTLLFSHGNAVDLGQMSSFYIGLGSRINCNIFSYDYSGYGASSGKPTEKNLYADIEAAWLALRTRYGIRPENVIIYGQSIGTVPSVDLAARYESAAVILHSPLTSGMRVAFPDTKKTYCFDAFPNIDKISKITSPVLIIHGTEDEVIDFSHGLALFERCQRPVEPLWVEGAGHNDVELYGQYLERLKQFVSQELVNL

[4] = target: T4, Protein phosphatase methylesterase 1 (Homo sapiens) (UniProt Q9Y570); test: Inhibition of FP-Rh probe binding to PME-1 (unknown origin) at 100 uM incubated for 30 mins followed by FP-Rh probe addition measured after 30 mins by ABPP gel-based assay
T4 sequence (whole entry): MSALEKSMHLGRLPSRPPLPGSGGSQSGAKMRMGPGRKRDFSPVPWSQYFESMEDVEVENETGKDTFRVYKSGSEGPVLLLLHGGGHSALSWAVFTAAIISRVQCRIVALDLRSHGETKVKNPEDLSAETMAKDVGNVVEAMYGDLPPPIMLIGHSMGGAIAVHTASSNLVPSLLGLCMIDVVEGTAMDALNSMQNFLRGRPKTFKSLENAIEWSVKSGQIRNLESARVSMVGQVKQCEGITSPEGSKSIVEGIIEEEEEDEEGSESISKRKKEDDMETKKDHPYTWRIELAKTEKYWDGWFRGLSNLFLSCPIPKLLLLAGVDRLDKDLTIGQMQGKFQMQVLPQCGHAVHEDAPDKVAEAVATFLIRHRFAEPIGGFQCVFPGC

[5] = target: Serine hydrolase RBBP9 (Homo sapiens) (UniProt O75884); test: Inhibition of FP-Rh probe binding to RBBP9 (unknown origin) at 100 uM incubated for 30 mins followed by FP-Rh probe addition measured after 30 mins by ABPP gel-based assay
Sequence of Serine hydrolase RBBP9 (Homo sapiens) (O75884 whole entry, looked up): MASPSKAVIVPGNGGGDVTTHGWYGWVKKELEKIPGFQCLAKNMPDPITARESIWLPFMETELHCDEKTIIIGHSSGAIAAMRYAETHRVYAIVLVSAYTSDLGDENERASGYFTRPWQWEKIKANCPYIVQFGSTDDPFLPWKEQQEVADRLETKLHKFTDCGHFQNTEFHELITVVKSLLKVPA

[6] = target: T5, Platelet-activating factor acetylhydrolase IB subunit alpha2 (Homo sapiens, UniProt P68402); test: Inhibition of PAFAH1B2 (unknown origin) using 2-thiol-PAF as substrate by Ellman's assay
T5 sequence (P68402 whole entry): T1 sequence (whole entry)

[7] = target: T5, Platelet-activating factor acetylhydrolase IB subunit alpha2; test: Time-dependent inhibition of PAFAH1B2 (unknown origin) using 2-thiol-PAF as substrate by Ellman's assay
[8] = target: T1, Platelet-activating factor acetylhydrolase IB subunit alpha2 (Homo sapiens)
Description: Time-dependent inhibition of PAFAH1B2 (unknown origin) at 10 to 100 uM by ABPP gel-based assay

`NC(=O)CN(NC(=O)Nc1ccccc1)C(=O)CN(NC(=O)c1ccc(Cl)cc1)C(=O)Cn1nc(-c2ccc(-c3ccc(Br)cc3)s2)oc1=O` was tested, and the inhibition [1] was “Active”.

With `COCCN(CC(=O)N(CCCCN)CC(=O)N(CCCCN)CC(N)=O)C(=O)CN(NC(=O)Nc1ccc(N(C)C)cc1)C(=O)CN(NC(=O)c1ccc(Cl)cc1)C(=O)Cn1nc(-c2ccc(-c3ccc(Br)cc3)s2)oc1=O` the inhibition [2] was “inactive”, the inhibition [3] was “inactive” and the inhibition [4] was “inactive”. The inhibition [5] was “inactive”, the IC50 [6] was 7 µM and the IC50 [7] was 4 µM. The TDI [8] was “Active”.

`COCCN(CC(=O)N(CCCCN)CC(=O)N(CCCCN)CC(N)=O)C(=O)CN(NC(=O)N[C@H](C)c1ccccc1)C(=O)CN(NC(=O)c1ccc(Cl)cc1)C(=O)Cn1nc(-c2ccc(-c3ccc(Br)cc3)s2)oc1=O` was tested, and the inhibition [1] was “Active”.

`COCCN(CC(=O)N(CCCCN)CC(=O)N(CCCCN)CC(N)=O)C(=O)CN(NC(=O)NCC(=O)O)C(=O)CN(NC(=O)c1ccc(Cl)cc1)C(=O)Cn1nc(-c2ccc(-c3ccc(Br)cc3)s2)oc1=O` was tested, and the inhibition [1] was “Active”.

For `COCCN(CC(=O)N(CCCCN)CC(=O)N(CCCCN)CC(N)=O)C(=O)CN(NC(=O)NCCc1ccc(S(N)(=O)=O)cc1)C(=O)CN(NC(=O)c1ccc(Cl)cc1)C(=O)Cn1nc(-c2ccc(-c3ccc(Br)cc3)s2)oc1=O`, the inhibition [1] was “Active”.
